Test results taken from US9645154B2, “Method for detecting cancer cell” (ARKRAY, Inc., priority 2010, dated 2017).

Tests used:
Experiment in all cases: Aminolevulinic acid (with FeCl2 and ascorbic acid) labeling, fluorescence microscopy image analysis (positive rate)
Format in all cases: cell-based
[1] = test system: human alveolar epithelial cancer cells (NCI-H358); conditions: hemolyzed, 0.3 mM, 60 min, 37° C., threshold value 212
Source text: (§1) The number of the cells was counted using a hemacytometer in accordance with the conventional method, and then 10^5 to 10^6 cells per sample (cell suspension) was aliquoted. The sample was centrifuged to remove the supernatant. Subsequently, aminolevulinic acid 5-AMINOLEVULINATE HYDROCHLORIDE (trade name, Cosmo Bio Co., Ltd., at the final concentration given in Table 7 or 8) dissolved in Dulbecco's PBS (+) and FeCl2 and ascorbic acid having the same concentration as that of aminolevulinic acid, respectively, were added thereto, and the cells were suspended well. The number of the cells was adjusted, and then the cells were added dropwise to a 384-well plate. The plate was centrifuged to spin down the cells. The image was captured with a fluorescence microscope (Nikon Corp.).
(§2) The wavelengths for the fluorescence filter set: EX (excitation wavelength): 402±7.5, DM: 430 or longer, BA (fluorescence wavelength): 625±15.
(§3) The acquired images were analyzed using an image analysis software NIS-ELEMENTS (trade name, Nikon Corp.) to evaluate the fluorescence intensity of the cell.
(§4) In a manner similar to Example 4, each of human breast adenocarcinoma cells (Cell line name: MCF-7; DS Pharma Biomedical Co., Ltd.), human colon adenocarcinoma cells (Cell line name: SW620; DS Pharma Biomedical Co., Ltd.), human prostate cancer cells (Cell line name: PC3; DS Pharma Biomedical Co., Ltd.), human alveolar epithelial cancer cells (Cell line name: NCI-H358; DS Pharma Biomedical Co., Ltd.), human gastric cancer cells (Cell line name: SNU-1; ATCC) and human fibrosarcoma cells (Cell line name: HT1080; DS Pharma Biomedical Co., Ltd.) was detected with aminolevulinic acid.

[2] = test system: human breast adenocarcinoma cells (MCF-7); conditions: hemolyzed, 0.3 mM, 60 min, 37° C., threshold value 268
Source text: as §1, §2, §3, §4

[3] = test system: human colon adenocarcinoma cells (SW620); conditions: hemolyzed, 0.3 mM, 60 min, 37° C., threshold value 207
Source text: as §1, §2, §3, §4

[4] = test system: human fibrosarcoma cells (HT1080); conditions: hemolyzed, 0.3 mM, 60 min, 37° C., threshold value 203
Source text: as §1, §2, §3, §4

[5] = test system: human gastric cancer cells (SNU-1); conditions: hemolyzed, 0.3 mM, 60 min, 37° C., threshold value 198
Source text: In accordance with the conventional method, cultured human prostate cancer cell line PC3 (DS Pharma Biomedical Co., Ltd.) was harvested with trypsin (Invitrogen). The human gastric cancer cell line SNU-1 (ATCC), which is a suspension cell line, was directly harvested without any trypsin treatment. The cell suspension of the harvested cancer cells was centrifuged, and the supernatant was removed. The cells were resuspended with Dulbecco's PBS (+) (Nissui Pharmaceutical Co., Ltd.) and centrifuged, and the supernatant was removed again.
The number of the cells was counted using a hemacytometer in accordance with the conventional method, and then 10^5 to 10^6 cells per sample (cell suspension) was aliquoted. The sample was centrifuged to remove the supernatant. […] The image was captured with a fluorescence microscope (Nikon Corp.).
as §2
The acquired images were analyzed using an image analysis software NIS-ELEMENTS (trade name, Nikon Corp.) to evaluate the fluorescence intensity of the cell. […]

Structure (SMILES): NCC(=O)CCC(=O)O [aminolevulinic acid, 5-amino-4-oxopentanoic acid]
- Positive rate (Cancer cells) [1]: 94.4%
- Positive rate (Cancer cells) [2]: 86.7%
- Positive rate (Cancer cells) [3]: 97.0%
- Positive rate (Cancer cells) [4]: 94.6%
- Positive rate (Cancer cells) [5]: 81.6%
